In article PMC9232612, “A phase 1b randomised controlled trial of a glucagon-like peptide-1 and glucagon receptor dual agonist IBI362 (LY3305677) in Chinese patients with type 2 diabetes” (Nature Communications, 2022):

Columns and labels:
[1] = single dose range of 0.03-5 mg; earlier study, ref not given; cited from earlier work
Source text: page 21: safety follow-up visit. The safety data of this patient was collected and included in the analysis. We made this clear in the Results (Lines 210-213). 6. For the tables that present treatment emergent adverse events (Table 2 and Supplementary Table 2), do the numbers in the table correspond to the number of events, or the number of patients who experienced at least one event? Response: Safety data in this study were presented as number of patients (percentage). We made this clear in the footnotes (Fig. 2 and S3) of relevant tables and apologized for the neglect. 7. For Supplementary T ...

[2] = system: Chinese patients with T2D; assay: Mixed-meal tolerance test (MTT) and fasting: total GLP-1; type: in vivo, human; details: week 12; patients receiving IBI362
Protocol: HbA1c (2200101, Bio-Rad, USA), blood glucose (05168791190, Roche Diagnostics, Germany), insulin (12017547122, Roche Diagnostics, Germany), C peptide (03184897190, Roche Diagnostics, Germany), total GLP-1 (GLP-1 [7–36] amide and its metabolite, GLP-1 [9–36] amide, 10-1278-01, Mercodia AB, Sweden) and OXM (AL-139, AnshLabs, USA) tests were performed according to the manufactures’ instruction manuals in a central laboratory (KingMed Diagnostics, Guangzhou, China). HbA1c was measured using a Bio-rad D-100 Haemoglobin Testing System (Bio-rad). Blood glucose was measured using a Roche Cobas c702 analyser (Roche Diagnostics). Insulin and C peptide were measured using a Roche […] analyser (Roche Diagnostics). GLP-1 and OXM were measured using a Tecan Infinite M Plex microplate reader (TECAN).
Standard non-compartmental pharmacokinetics methods were used to analyze IBI362 plasma concentration data using Pkanalix 2020R1 (Lixoft, Antony, France). Secondary efficacy outcomes included change from baseline to week 12 in HbA1c, fasting plasma glucose (FPG), fasting insulin levels, change from baseline to week 12 in post-mixed-meal tolerance test (post-MTT) glucose, insulin, C peptide, GLP-1 and OXM levels, as well as seven-point self-measured blood glucose (SMBG) profile. […]
3. […]
bag is added and mixed well. The time is counted from the first bite of eating. […]

[3] = Physical and chemical characteristics of drug substance (solubility, PI); type: physicochemical
Source text: IBI362 Innovent Biologics (Suzhou) Co., Ltd. CIBI362A101
IBI362 or placebo, the patient, the investigator, and all personnel involved in the clinical evaluation will be blinded to the treatment from the randomization to database locked, […]
Different drug numbers corresponded to random numbers after randomization in the IWRS, and the unblinding information remained unknown to patients and investigators throughout the trial. The randomization table will be kept by a designated […]
The study drug and placebo will be packaged, labeled, administered at the same time, and will have the appearance, taste, and smell exactly the same to hide the real situation of the treatment drug.
If necessary for the safety of the subject, emergency unblinding must be performed […]
If a patient is randomized to receive active control, the patient will not be blinded.
Sponsor will not be blinded during this study.
5.2.1 Physical and Chemical Characteristics of Drug Substance
Molecular weight: 4560.32 Dalton
Description: White to off-white powder
Solubility: Vehicle: 20 mM Tris buffer pH 8.0 and
Solubility: Not less than 10 mg/mL at
Solubility Description: Sparingly or
5.2.2 Study Drug Strength and Manufacturer
IBI362 is formulated as IBI362 for injection in a strength of 2 mg per vial and […]
The strength of the formulation used in this study is 2 mg/vial; Manufacturer: […]

[4] = system: mouse glucagon receptors; details: in vitro; cited from earlier work
Source text: (§1) IBI362 (also known as LY3305677) is a once-weekly synthetic peptide analogue of mammalian OXM, with a fatty-acyl moiety to extend the half-life[13].

[5] = system: human GLP-1 receptors; details: in vitro; cited from earlier work
Source text: as §1

[6] = system: mouse GLP-1 receptors; details: in vitro; cited from earlier work
Source text: as §1

[7] = system: human glucagon receptors; details: in vitro; cited from earlier work
Source text: as §1

[8] = system: mice; details: cited from earlier work
Source text: as §1

CC(C)C[C@H](NC(=O)[C@H](CC(C)C)NC(=O)[C@H](Cc1c[nH]c2ccccc12)NC(=O)[C@H](CCC(=O)O)NC(=O)[C@@H](NC(=O)[C@H](Cc1ccccc1)NC(=O)[C@H](CCC(=O)O)NC(=O)[C@H](CCCCNC(=O)COCCOCCNC(=O)COCCOCCNC(=O)CC[C@H](NC(=O)CCCCCCCCCCCCCCCCCCC(=O)O)C(=O)O)NC(=O)[C@H](C)NC(=O)[C@H](CCCCN)NC(=O)[C@H](CCCCN)NC(=O)[C@H](CCC(=O)O)NC(=O)[C@H](CC(=O)O)NC(=O)[C@H](CC(C)C)NC(=O)[C@H](Cc1ccc(O)cc1)NC(=O)[C@H](CCCCN)NC(=O)[C@H](CO)NC(=O)[C@H](Cc1ccc(O)cc1)NC(=O)[C@H](CC(=O)O)NC(=O)[C@H](CO)NC(=O)[C@@H](NC(=O)[C@H](Cc1ccccc1)NC(=O)[C@@H](NC(=O)CNC(=O)[C@H](CCC(N)=O)NC(=O)C(C)(C)NC(=O)[C@@H](N)Cc1c[nH]cn1)[C@@H](C)O)[C@@H](C)O)C(C)C)C(=O)N[C@@H](CCC(=O)O)C(=O)NCC(=O)NCC(=O)N1CCC[C@H]1C(=O)N[C@@H](CO)C(=O)N[C@@H](CO)C(=O)NCC(N)=O [IBI362]
pharmacokinetic profile [1]: linear
post-MTT GLP-1 excursion [2]: markedly suppressed
PI ([3]; drug substance): 5.2
Solubility ([3]; vehicle 20 mM Tris buffer pH 8.0 and 150 mM sodium chloride, 25℃): Not less than 10 mg/mL
binding [4]: potently bound
binding [5]: potently bound
binding [6]: potently bound
binding [7]: potently bound
body weight ([8]; both Gcgr KO and Glp1r KO settings): decreased body weight
energy expenditure ([8]; mice): increased energy expenditure
glucose control ([8]; mice): improved glucose control
